Data published in patent publication US8598157B2, “5-alkynyl-pyridines” (Boehringer Ingelheim International GmbH, priority 2011, dated 2013).

Legend:
H460 cells = assay: alamarBlue H460 cell assay (antiproliferative/cytotoxicity); assay type: cell-based; details: NCI-H460; H460 human lung carcinoma cells
How it was run: (§1)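 After overnight attachment at 37 °C, cells receive a ten-point, 1:3 dilution series starting at 10 μM final, in duplicate, with untreated medium/DMSO controls. Following 5-6 days, alamarBlue is incubated 8 h and emission at 590 nm recorded.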

PI3Kalpha = PI3Kalpha (Homo sapiens (Human), UniProt P42336); assay: Inhibition of PI3Kalpha-induced PIP-2 phosphorylation (filter-binding assay); assay type: biochemical; details: 33P-ATP, p85alpha/His-p110alpha, read-out: IC50 PI3Kα
PI3Kalpha, sequence (P42336 whole entry): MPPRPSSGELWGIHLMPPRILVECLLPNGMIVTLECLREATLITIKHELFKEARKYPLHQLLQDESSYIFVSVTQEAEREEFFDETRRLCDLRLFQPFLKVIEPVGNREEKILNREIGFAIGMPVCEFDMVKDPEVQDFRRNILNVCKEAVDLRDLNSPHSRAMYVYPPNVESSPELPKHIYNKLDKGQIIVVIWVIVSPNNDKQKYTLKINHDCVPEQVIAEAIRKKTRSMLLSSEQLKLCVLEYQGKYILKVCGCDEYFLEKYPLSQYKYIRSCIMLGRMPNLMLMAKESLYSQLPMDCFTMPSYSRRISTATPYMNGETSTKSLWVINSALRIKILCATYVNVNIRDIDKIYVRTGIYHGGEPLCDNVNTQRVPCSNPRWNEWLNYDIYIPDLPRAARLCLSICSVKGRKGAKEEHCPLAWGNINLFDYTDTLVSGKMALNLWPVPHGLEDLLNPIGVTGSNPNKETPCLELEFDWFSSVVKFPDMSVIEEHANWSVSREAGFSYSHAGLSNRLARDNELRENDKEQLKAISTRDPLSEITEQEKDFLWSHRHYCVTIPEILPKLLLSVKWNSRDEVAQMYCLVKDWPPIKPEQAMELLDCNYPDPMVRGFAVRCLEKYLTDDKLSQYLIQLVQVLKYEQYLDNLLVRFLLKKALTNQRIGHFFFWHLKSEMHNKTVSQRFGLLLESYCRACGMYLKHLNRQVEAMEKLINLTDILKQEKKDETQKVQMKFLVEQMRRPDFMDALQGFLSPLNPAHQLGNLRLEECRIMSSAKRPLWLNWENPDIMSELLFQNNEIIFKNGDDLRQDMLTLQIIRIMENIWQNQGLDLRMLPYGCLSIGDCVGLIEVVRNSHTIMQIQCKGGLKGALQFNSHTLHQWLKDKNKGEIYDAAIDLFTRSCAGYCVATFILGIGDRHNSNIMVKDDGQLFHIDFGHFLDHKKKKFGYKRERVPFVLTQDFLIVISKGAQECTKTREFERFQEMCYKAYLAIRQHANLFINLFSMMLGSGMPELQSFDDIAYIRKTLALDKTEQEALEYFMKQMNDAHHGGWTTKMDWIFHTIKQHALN
How it was run: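 Radiometric filter-binding assay: PI3Kα (25 ng/well) preincubated 20 min at room temperature with compound and PIP2-containing lipid vesicles plus phosphotyrosine PDGFRβ peptide. Reaction started with cold ATP (1 μM final) and [33P]-ATP and run 120 min at room temperature; filter-captured radioactivity counted, IC50 from duplicate dilution series.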

U87 cells = assay: U87 cell assay (antiproliferative/cytotoxicity); assay type: cell-based; details: U-87MG human glioblastoma cells
How it was run: as §1

MB453 cells = assay: alamarBlue MB453 cell assay (antiproliferative/cytotoxicity); assay type: cell-based; details: Homo sapiens; MDA MB 453 breast cancer cell line
How it was run: as §1

MCF7 cells = assay: alamarBlue MCF7 cell assay (antiproliferative/cytotoxicity); assay type: cell-based; details: MCF7 human breast cancer cell line
How it was run: as §1

BT474 cells = assay: alamarBlue BT474 cell assay (antiproliferative/cytotoxicity); assay type: cell-based; details: BT-474 human breast cancer cell line
How it was run: as §1

SMILES | EC50 (H460 cells) [nM] | IC50 (PI3Kalpha) [nM] | EC50 (U87 cells) [nM] | EC50 (MB453 cells) [nM] | EC50 (MCF7 cells) [nM] | EC50 (BT474 cells) [nM]
Cc1ncc(C#Cc2c(C)ncnc2N2CCOCC2)cc1NS(=O)(=O)c1ccccc1F [Example I-2, 2-Fluoro-N-[2-methyl-5-(4-methyl-6-morpholin-4-yl-pyrimidin-5-ylethynyl)-pyridin-3-yl]-benzenesulfonamide] | 234 | 0.65 | 342 | 168 | 43 | 148
CCc1ncnc(N(C)C)c1C#Cc1cnc(C)c(NS(=O)(=O)c2ccc(F)cc2)c1 [Example I-27, N-[5-(4-Dimethylamino-6-ethyl-pyrimidin-5-ylethynyl)-2-methyl-pyridin-3-yl]-4-fluoro-benzenesulfonamide] | 791 | 1 | 1620 | 1220 | 10000 | 10000
Cc1ncnc(N2CCOCC2)c1C#Cc1cncc(NS(=O)(=O)c2cnn(C)c2)c1 [Example I-23, 1-Methyl-1H-pyrazole-4-sulfonic acid [5-(4-methyl-6-morpholin-4-yl-pyrimidin-5-ylethynyl)-pyridin-3-yl]-amide] | 2180 | 0.66 | 1750 | 1040 | 214 | 3500
Cc1ncc(C#Cc2c(C)ncnc2N2CCOCC2)cc1NS(=O)(=O)c1cn(C)cn1 [Example I-9, 1-Methyl-1H-imidazole-4-sulfonic acid [2-methyl-5-(4-methyl-6-morpholin-4-yl-pyrimidin-5-ylethynyl)-pyridin-3-yl]-amide] | 1460 | 1 | 1450 | 1070 | 748 | 856
Cc1ncc(C#Cc2c(C)ncnc2N2CCN(C)CC2)cc1NS(=O)(=O)c1ccc(F)cc1F [Example I-18, 2,4-Difluoro-N-{2-methyl-5-[4-methyl-6-(4-methyl-piperazin-1-yl)-pyrimidin-5-ylethynyl]-pyridin-3-yl}-benzenesulfonamide] | 269 | 1 | 358 | 418 | 72 | 221
Cc1ncc(C#Cc2c(C)ncnc2N2CCN(C)C(=O)C2)cc1NS(=O)(=O)c1ccccc1 [Example I-60, N-{2-Methyl-5-[4-methyl-6-(4-methyl-3-oxo-piperazin-1-yl)-pyrimidin-5-ylethynyl]-pyridin-3-yl}-benzenesulfonamide] | 1250 | 2 | 945 | 618 | 103 | 1540
Cc1ncc(C#Cc2c(C)ncnc2N2CCOCC2)cc1NS(C)(=O)=O [Example I-37, N-[2-Methyl-5-(4-methyl-6-morpholin-4-yl-pyrimidin-5-ylethynyl)-pyridin-3-yl]-methanesulfonamide] | 903 | 1 | 966 | 318 | 134 | 416
CCc1ncnc(N2CCN(S(C)(=O)=O)CC2)c1C#Cc1cnc(C)c(NS(=O)(=O)c2ccc(F)cc2)c1 [Example I-67, N-{5-[4-Ethyl-6-(4-methanesulfonyl-piperazin-l-yl)-pyrimidin-5-ylethynyl]-2-methyl-pyridin-3-yl}-4-fluoro-benzenesulfonamide] | 37 | 0.14 | 471 | 54 | 9 | 44
Cc1ncc(C#Cc2c(C)ncnc2N2CCOCC2)cc1NS(=O)(=O)c1ccccc1Cl [Example I-5, 2-Chloro-N-[2-methyl-5-(4-methyl-6-morpholin-4-yl-pyrimidin-5-ylethynyl)-pyridin-3-yl]-benzenesulfonamide] | 64 | 1 | 271 | 202 | 61 | 152
COCCN1CCN(c2ncnc(C)c2C#Cc2cnc(C)c(NS(=O)(=O)c3ccccc3)c2)CC1 [Example I-57, N-(5-{4-[4-(2-Methoxy-ethyl)-piperazin-1-yl]-6-methyl-pyrimidin-5-ylethynyl}-2-methyl-pyridin-3-yl)-benzenesulfonamide] | 82 | 0.83 | 338 | 443 | 2 | 1300
Cc1ncc(C#Cc2c(C)ncnc2N2CCCCC2)cc1NS(=O)(=O)c1ccccc1 [Example I-63, N-[2-Methyl-5-(4-methyl-6-piperidin-1-yl-pyrimidin-5-ylethynyl)-pyridin-3-yl]-benzenesulfonamide] | 308 | 3 | 1300 | 1330 | 126 | 4320
Cc1ncc(C#Cc2c(C)ncnc2N2CCOCC2)cc1NS(=O)(=O)c1cccs1 [Example I-10, Thiophene-2-sulfonic acid [2-methyl-5-(4-methyl-6-morpholin-4-yl-pyrimidin-5-ylethynyl)-pyridin-3-yl]-amide] | 42 | 0.72 | 126 | 113 | 67 | 116
Cc1ncc(C#Cc2c(C)ncnc2N2CCOCC2)cc1NS(=O)(=O)c1ccc(Cl)s1 [Example I-52, 5-Chloro-thiophene-2-sulfonic acid [2-methyl-5-(4-methyl-6-morpholin-4-yl-pyrimidin-5-ylethynyl)-pyridin-3-yl]-amide] | 274 | 0.47 | 443 | 298 | 39 | 224
COc1ncc(C#Cc2c(C)ncnc2N2CCOCC2)cc1NS(=O)(=O)c1ccccc1 [Example I-1, N-[2-Methoxy-5-(4-methyl-6-morpholin-4-yl-pyrimidin-5-ylethynyl)-pyridin-3-yl]-benzenesulfonamide] | 19 | 0.4 | 55 | 47 | 4 | 14
Cc1ncc(C#Cc2c(C)ncnc2N2CCOCC2)cc1NS(=O)(=O)c1ccc(F)cc1F [Example I-41, 2,4-Difluoro-N-[2-methyl-5-(4-methyl-6-morpholin-4-yl-pyrimidin-5-ylethynyl)-pyridin-3-yl]-benzenesulfonamide] | 146 | 0.51 | 287 | 102 | 19 | 69
Cc1ncc(C#Cc2c(C)ncnc2N2CCOCC2)cc1NS(=O)(=O)c1c(F)cccc1F [Example I-7, 2,6-Difluoro-N-[2-methyl-5-(4-methyl-6-morpholin-4-yl-pyrimidin-5-ylethynyl)-pyridin-3-yl]-benzenesulfonamide] | 108 | 0.8 | 223 | 146 | 38 | 82
CCc1ncnc(N(C)C)c1C#Cc1cnc(C)c(NS(C)(=O)=O)c1 [Example I-32, N-[5-(4-Dimethylamino-6-ethyl-pyrimidin-5-ylethynyl)-2-methyl-pyridin-3-yl]-methanesulfonamide] | 1210 | 8 | 1290 | 656 | 617 | 1880
